This passage reports IC50 results from paper PMC12668308, “A Novel Antimalarial Agent that Inhibits Protein Synthesis in Plasmodium falciparum” (Angewandte Chemie (International Ed. in English), 2025).

The structures appear in SMILES notation.

Test [1] relates to P. falciparum NF54 strain. The test is described as follows: [3H]-hypoxanthine incorporation assay, asexual blood stage. The format is cell-based, Plasmodium falciparum. As to conditions: Plasmodium falciparum, NF54, asexual blood stage; mean ± s.d.; read-out: PfNF54 IC50 ± s.d. The method, boiled down:
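Parasites in human RBC were exposed to a 6-step twofold compound dilution in hypoxanthine-free medium (final parasitemia 0.3%, haematocrit 1.25%) at 37 °C under 3% O2/4% CO2. After 48 h, [3H]-hypoxanthine (0.25 µCi/well) was added for 24 h and uptake measured by scintillation counting. IC50 came from four-parameter curve fitting.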

The target in test [2] is PfIspD (Plasmodium falciparum, UniProt W7KNE8). The test is described as follows: PfIspD inhibition. As to conditions: mean ± s.d. The class given is biochemical.
Chain of PfIspD (W7KNE8 entry or part of it): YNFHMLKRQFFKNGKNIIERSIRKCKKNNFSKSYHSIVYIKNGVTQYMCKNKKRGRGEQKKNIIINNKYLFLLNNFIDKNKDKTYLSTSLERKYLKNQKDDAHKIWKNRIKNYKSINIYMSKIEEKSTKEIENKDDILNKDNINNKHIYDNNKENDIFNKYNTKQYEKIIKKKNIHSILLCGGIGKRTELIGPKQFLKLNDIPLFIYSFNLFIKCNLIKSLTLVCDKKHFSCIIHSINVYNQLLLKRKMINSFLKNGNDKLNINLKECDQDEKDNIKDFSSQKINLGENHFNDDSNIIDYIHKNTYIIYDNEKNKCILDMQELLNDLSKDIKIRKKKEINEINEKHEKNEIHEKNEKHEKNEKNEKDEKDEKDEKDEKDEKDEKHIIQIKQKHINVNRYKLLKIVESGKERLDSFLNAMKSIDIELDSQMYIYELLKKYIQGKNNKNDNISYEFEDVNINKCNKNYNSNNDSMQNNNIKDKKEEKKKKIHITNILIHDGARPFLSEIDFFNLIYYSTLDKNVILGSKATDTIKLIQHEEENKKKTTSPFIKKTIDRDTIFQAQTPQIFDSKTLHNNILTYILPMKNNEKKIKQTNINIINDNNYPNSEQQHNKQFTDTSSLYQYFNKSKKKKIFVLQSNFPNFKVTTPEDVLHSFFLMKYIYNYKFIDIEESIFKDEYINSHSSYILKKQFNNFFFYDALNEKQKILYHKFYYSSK

With `O=C(Nc1cc(S(=O)(=O)N2CCCC2)ccc1O)c1cccc(Oc2ccccc2)c1` [Compound 1, N-(2-Hydroxy-5-(pyrrolidin-1-ylsulfonyl)phenyl)-3-phenoxybenzamide], the 50% inhibitory concentration (IC50) was found to be 0.592 ± 0.0776 µM in test [1] and 15 ± 4 µM in test [2].

As usually defined, the IC50 is the midpoint of a concentration-inhibition curve.
